{
  "source": "patent US8889627B2",
  "about": "(Teva Pharmaceutical Industries, Ltd., priority 2011, dated 2014)",
  "key": {"[1]": {"test_system": "MOG-induced EAE mice", "test": "Efficacy of laquinimod alone or in combination with fingolimod in MOG-induced EAE", "assay_type": "in vivo, mice (C57BL/6)", "settings": "for activity according to GMS compared to vehicle control: oral QD; for Duration / Onset / Mortality / GMS value / Incidence: Day 1 to 30; for Mortality: dead or moribund/total mice; for GMS value: group mean clinical score (0-6); for Incidence: sick/total mice"}, "[2]": {"target": "T1, S1PR4 (Homo sapiens, UniProt O95977)", "T1 sequence (O95977 1-384)": "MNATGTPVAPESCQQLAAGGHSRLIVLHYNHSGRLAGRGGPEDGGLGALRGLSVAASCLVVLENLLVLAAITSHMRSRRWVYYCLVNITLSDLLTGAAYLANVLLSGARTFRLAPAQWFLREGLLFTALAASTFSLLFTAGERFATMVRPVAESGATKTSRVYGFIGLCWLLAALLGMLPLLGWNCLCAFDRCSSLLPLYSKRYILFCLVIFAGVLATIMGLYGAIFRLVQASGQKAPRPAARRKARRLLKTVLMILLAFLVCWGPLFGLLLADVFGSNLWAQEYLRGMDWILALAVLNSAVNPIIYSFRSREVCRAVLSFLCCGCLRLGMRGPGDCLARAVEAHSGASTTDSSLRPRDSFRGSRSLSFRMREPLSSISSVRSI", "settings": "cited from earlier work"}, "[3]": {"target": "S1PR5 (Homo sapiens, UniProt Q9H228)", "sequence (Q9H228 whole entry, species assumed)": "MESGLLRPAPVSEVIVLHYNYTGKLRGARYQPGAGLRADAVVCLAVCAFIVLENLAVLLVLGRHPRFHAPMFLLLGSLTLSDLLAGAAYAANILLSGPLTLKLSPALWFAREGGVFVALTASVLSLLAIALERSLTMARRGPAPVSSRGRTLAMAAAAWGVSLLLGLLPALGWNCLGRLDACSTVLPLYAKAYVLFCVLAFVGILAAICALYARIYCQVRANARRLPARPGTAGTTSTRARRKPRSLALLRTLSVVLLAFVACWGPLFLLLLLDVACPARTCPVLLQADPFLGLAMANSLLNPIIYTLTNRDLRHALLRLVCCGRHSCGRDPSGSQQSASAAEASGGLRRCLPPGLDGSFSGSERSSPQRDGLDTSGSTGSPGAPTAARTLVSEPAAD", "settings": "cited from earlier work"}},
  "data": [
    {"smiles": "CCCCCCCCc1ccc(CCC(N)(CO)CO)cc1", "note": "[Fingolimod, 2-amino-2-[2-(4-octylphenyl)ethyl]propane-1,3-diol]", "values": [
      {"measurement": "activity according to GMS compared to vehicle control", "setting": "[1]; fingolimod 0.3 mg/kg (sub optimal dose)", "value": 56.3, "unit": "%"},
      {"measurement": "effectiveness against EAE (in words)", "setting": "[1]; fingolimod 0.3 mg/kg alone", "value": "moderately effective"},
      {"measurement": "Duration", "setting": "[1]; fingolimod 0.3 mg/kg oral QD", "value": "15.0 ± 6.7", "unit": "days"},
      {"measurement": "Onset", "setting": "[1]; fingolimod 0.3 mg/kg oral QD", "value": "16.0 ± 6.7", "unit": "days"},
      {"measurement": "Mortality", "setting": "[1]; fingolimod 0.3 mg/kg oral QD", "value": "0/15"},
      {"measurement": "GMS value", "setting": "[1]; fingolimod 0.3 mg/kg oral QD", "value": "1.4 ± 0.8"},
      {"measurement": "Incidence", "setting": "[1]; fingolimod 0.3 mg/kg oral QD", "value": "13/15"},
      {"measurement": "activity according to GMS compared to vehicle control", "setting": "[1]; fingolimod 1 mg/kg (optimal dose)", "value": 81.3, "unit": "%"},
      {"measurement": "Duration", "setting": "[1]; fingolimod 1 mg/kg oral QD", "value": "7.59 ± 9.1", "unit": "days"},
      {"measurement": "Onset", "setting": "[1]; fingolimod 1 mg/kg oral QD", "value": "21.7 ± 9.3", "unit": "days"},
      {"measurement": "Mortality", "setting": "[1]; fingolimod 1 mg/kg oral QD", "value": "0/15"},
      {"measurement": "GMS value", "setting": "[1]; fingolimod 1 mg/kg oral QD", "value": "0.6 ± 0.8"},
      {"measurement": "Incidence", "setting": "[1]; fingolimod 1 mg/kg oral QD", "value": "8/15"}
    ]},
    {"smiles": "CCN(C(=O)c1c(O)c2c(Cl)cccc2n(C)c1=O)c1ccccc1", "note": "[Laquinimod]", "values": [
      {"measurement": "activity according to GMS compared to vehicle control", "setting": "[1]; laquinimod 10 mg/kg (sub optimal dose)", "value": 53.1, "unit": "%"},
      {"measurement": "effectiveness against EAE (in words)", "setting": "[1]; laquinimod 10 mg/kg alone", "value": "moderately effective"},
      {"measurement": "Duration", "setting": "[1]; laquinimod 10 mg/kg oral QD", "value": "14.1 ± 6.4", "unit": "days"},
      {"measurement": "Onset", "setting": "[1]; laquinimod 10 mg/kg oral QD", "value": "17.1 ± 6.3", "unit": "days"},
      {"measurement": "Mortality", "setting": "[1]; laquinimod 10 mg/kg oral QD", "value": "0/15"},
      {"measurement": "GMS value", "setting": "[1]; laquinimod 10 mg/kg oral QD", "value": "1.5 ± 0.8"},
      {"measurement": "Incidence", "setting": "[1]; laquinimod 10 mg/kg oral QD", "value": "13/15"},
      {"measurement": "activity according to GMS compared to vehicle control", "setting": "[1]; laquinimod 25 mg/kg (optimal dose)", "value": 81.1, "unit": "%"},
      {"measurement": "Duration", "setting": "[1]; laquinimod 25 mg/kg oral QD", "value": "8.1 ± 9.0", "unit": "days"},
      {"measurement": "Onset", "setting": "[1]; laquinimod 25 mg/kg oral QD", "value": "22.9 ± 9.0", "unit": "days"},
      {"measurement": "Mortality", "setting": "[1]; laquinimod 25 mg/kg oral QD", "value": "0/15"},
      {"measurement": "GMS value", "setting": "[1]; laquinimod 25 mg/kg oral QD", "value": "0.6 ± 0.8"},
      {"measurement": "Incidence", "setting": "[1]; laquinimod 25 mg/kg oral QD", "value": "7/15"}
    ]},
    {"smiles": "CCCCCCCCc1ccc(CCC(N)(CO)COP(=O)(O)O)cc1", "note": "(stereo not shown) [Fingolimod-phosphate]", "values": [
      {"measurement": "binding affinity (in words)", "setting": "[2]", "value": "high affinity"},
      {"measurement": "binding affinity (in words)", "setting": "[3]", "value": "high affinity"}
    ]}
  ]
}
